Data as given in patent US9770026B2, “Substituted pyrimidine compound and uses thereof” (Shenyang Sinochem Agrochemicals R&D Co., Ltd., priority 2012, dated 2017).

How the values were obtained:
corn rust = experiment: protectant activity in vivo against corn rust; details: for control effect against corn rust (%): protectant activity
armyworm = experiment: bioactivity test against armyworm, airbrush spray; type: in vivo
Protocol: (§1) Compounds were dissolved in mixed solvent (acetone:methanol=1:1), and diluted to required concentration with water containing 0.1% of tween 80.
(§2) Diamond back moth, armyworm, peach aphid and carmine spider mite were used as targets and the method of spraying by airbrush was used for determination of insecticidal biassays.
The method of spraying by airbrush: The corn leaves were made into plates of 2 cm diameter by use of punch. A test solution (0.5 ml) was sprayed by airbrush at the pressure of 0.7 kg/cm^2 to both sides of every plate. 10 Second instar larvae were put into the petri-dishes after the leaf disc air-dried and 3 replicates were set for each treatment. Then the insects were maintained in observation room (25 °C, 60˜70% R.H.). Scores were conducted and mortalities were calculated after 72 h.

cucumber downy mildew = experiment: protectant activity in vivo against cucumber downy mildew; details: for pest or weed control at 100 ppm: read-out: protectant activity against cucumber downy mildew in vivo, 100 ppm
wheat powdery mildew = experiment: protectant activity in vivo against wheat powdery mildew; details: for control effect against wheat powdery mildew (%): protectant activity
[1] = system: Green peach aphids (Myzus Persicae Sulzer); experiment: bioactivity test against green peach aphid, airbrush foliar spray; type: in vivo; details: for Insecticidal activity against peach aphid (%): contrastive test
Protocol: as §1, §2
Method: Filter papers were put in culture dishes (Diameter=6 cm), and water was dripped on filter papers for preserving moisture. Green peach aphids (Myzus Persicae Sulzer) were maintained on cabbage. Leaves (Diameter=3 cm) of approximately 15-30 aphids were put in the culture dishes. Bioactivity tests were used the method of Airbrush Foliar Spray, pressure=10 psi (0.7 kg/cm2), spray volume=0.5 mL. The studies were conducted at […] 25±1 C in incubator cabinets with 60±5% RH. Survey the survival aphids after 48 hrs and calculate the death rates.

carmine spider mite = experiment: bioactivity test against carmine spider mite, airbrush spray; type: in vivo; details: for control against carmine spider mite: mortality after 72 hrs
Protocol: as §1, §2
The method: Broadbean shoots with two true leaves in pot were taken, the healthy adults of carmine spider mite were inoculated to the leaves. The adults were counted and then sprayed with airbrush at the pressure of 0.7 kg/cm^2 and at dose of 0.5 ml. 3 replicates were set for each treatment. And then they were maintained in standard observation room. Scores were conducted and mortalities were calculated after 72 hrs.

[2] = 10 ppm, death rate after 48 hrs
[3] = 100 ppm, death rate after 48 hrs
[4] = 600 ppm, death rate after 48 hrs

## CCc1c(Cl)c(NCCc2ccc(Oc3ccc(C(F)(F)F)cc3)cc2)nc[n+]1CC(=O)c1ccccc1.[Br-] [CK5, reference compound]
Corn rust; 6.25 mg/L
  control effect against corn rust (%): 30%
Corn rust; 25 mg/L
  control effect against corn rust (%): 40%
Corn rust; 100 mg/L
  control effect against corn rust (%): 98%
Corn rust; 400 mg/L
  control effect against corn rust (%): 95%
armyworm; 10 mg/L
  Insecticidal activity against armyworm (%): 0%
armyworm; 100 mg/L
  Insecticidal activity against armyworm (%): 56%
armyworm; 600 mg/L
  Insecticidal activity against armyworm (%): 100%

## CCc1ncnc(NCCc2ccc(Oc3ncccc3C(F)(F)F)cc2)c1Cl [Compound I-987]
Cucumber downy mildew; 100 ppm
  protectant activity against cucumber downy mildew in vivo: 100%
Cucumber downy mildew; 400 ppm
  protectant activity against cucumber downy mildew in vivo: 100%
Wheat powdery mildew; 100 ppm
  protectant activity against wheat powdery mildew in vivo: 100%
Wheat powdery mildew; 400 ppm
  protectant activity against wheat powdery mildew in vivo: 100%
[1]; [2]
  control (test results against green peach aphid): 100%
[1]; [3]
  control (test results against green peach aphid): 100%
[1]; [4]
  control (test results against green peach aphid): 100%
Corn rust; 100 ppm
  protectant activity against corn rust in vivo: 100%
Corn rust; 400 ppm
  protectant activity against corn rust in vivo: 100%
Carmine spider mite; 10 mg/L, contrastive test
  Insecticidal activity against carmine spider mite (% ): 80%
Carmine spider mite; 100 mg/L, contrastive test
  Insecticidal activity against carmine spider mite (% ): 100%
Carmine spider mite; 600 mg/L, contrastive test
  Insecticidal activity against carmine spider mite (% ): 100%
Carmine spider mite; 100 ppm
  control against carmine spider mite: 100%
Carmine spider mite; 600 ppm
  control against carmine spider mite: 100%

## Cc1ncnc(NCCc2ccc(Oc3ccc(Cl)cc3Cl)cc2)c1Cl [II-21]
Cucumber downy mildew; 50 ppm
  protectant activity against cucumber downy mildew in vivo: 100%
Cucumber downy mildew; 100 ppm
  protectant activity against cucumber downy mildew in vivo: 100%
Cucumber downy mildew; 400 ppm
  protectant activity against cucumber downy mildew in vivo: 100%
[1]; [4]
  control (test results against green peach aphid): 100%
Corn rust; 100 ppm
  protectant activity against corn rust in vivo: 100%
Corn rust; 400 ppm
  protectant activity against corn rust in vivo: 100%
armyworm; 600 ppm, mortality after 72 h
  control (test results against armyworm): 100%
Carmine spider mite; 100 ppm
  control against carmine spider mite: 100%
Carmine spider mite; 600 ppm
  control against carmine spider mite: 100%

## Cc1ncnc(NCCc2ccc(Oc3ccc(C(F)(F)F)cn3)cc2)c1Cl.Cl [Compound I-6730]
Cucumber downy mildew; 25 ppm
  protectant activity against cucumber downy mildew in vivo: 100%
Cucumber downy mildew; 50 ppm
  protectant activity against cucumber downy mildew in vivo: 100%
Cucumber downy mildew; 400 ppm
  protectant activity against cucumber downy mildew in vivo: 100%
Cucumber downy mildew; Cucumis sativus, 168 h
  pest or weed control at 100 ppm: 100%
Wheat powdery mildew; 25 ppm
  protectant activity against wheat powdery mildew in vivo: 100%
Wheat powdery mildew; 100 ppm
  protectant activity against wheat powdery mildew in vivo: 100%
Wheat powdery mildew; 400 ppm
  protectant activity against wheat powdery mildew in vivo: 100%
Wheat powdery mildew; Triticum aestivum, 168 h, read-out: protectant activity against wheat powdery mildew in vivo, 6.25 ppm
  pest or weed control at 6.25 ppm: 80 to 99%
[1]; [4]
  control (test results against green peach aphid): 100%
Corn rust; 400 ppm
  protectant activity against corn rust in vivo: 100%
Carmine spider mite; 600 ppm
  control against carmine spider mite: 100%

## CCc1ncnc(NCCc2ccc(Oc3ccc(C(F)(F)F)cc3Cl)cc2)c1Cl [II-432]
Cucumber downy mildew; 400 ppm
  protectant activity against cucumber downy mildew in vivo: 100%
Wheat powdery mildew; 0.4 mg/L
  control effect against wheat powdery mildew (%): 50%
Wheat powdery mildew; 1.6 mg/L
  control effect against wheat powdery mildew (%): 80%
Wheat powdery mildew; 6.25 mg/L
  control effect against wheat powdery mildew (%): 100%
Wheat powdery mildew; 25 mg/L
  control effect against wheat powdery mildew (%): 100%
Wheat powdery mildew; 100 mg/L
  control effect against wheat powdery mildew (%): 100%
Wheat powdery mildew; 400 mg/L
  control effect against wheat powdery mildew (%): 100%
Wheat powdery mildew; 6.25 ppm
  protectant activity against wheat powdery mildew in vivo: 100%
Wheat powdery mildew; 25 ppm
  protectant activity against wheat powdery mildew in vivo: 100%
Wheat powdery mildew; 100 ppm
  protectant activity against wheat powdery mildew in vivo: 100%
Wheat powdery mildew; 400 ppm
  protectant activity against wheat powdery mildew in vivo: 100%
[1]; [3]
  control (test results against green peach aphid): 100%
[1]; [4]
  control (test results against green peach aphid): 100%
Corn rust; 0.4 mg/L
  control effect against corn rust (%): 15%
Corn rust; 1.6 mg/L
  control effect against corn rust (%): 75%
Corn rust; 6.25 mg/L
  control effect against corn rust (%): 100%
Corn rust; 25 mg/L
  control effect against corn rust (%): 100%
Corn rust; 100 mg/L
  control effect against corn rust (%): 100%
Corn rust; 400 mg/L
  control effect against corn rust (%): 100%
Corn rust; 6.25 ppm
  protectant activity against corn rust in vivo: 100%
Corn rust; 25 ppm
  protectant activity against corn rust in vivo: 100%
Corn rust; 100 ppm
  protectant activity against corn rust in vivo: 100%
Corn rust; 400 ppm
  protectant activity against corn rust in vivo: 100%
Carmine spider mite; 10 mg/L, contrastive test
  Insecticidal activity against carmine spider mite (% ): 76%
Carmine spider mite; 100 mg/L, contrastive test
  Insecticidal activity against carmine spider mite (% ): 100%
Carmine spider mite; 600 mg/L, contrastive test
  Insecticidal activity against carmine spider mite (% ): 100%
Carmine spider mite; 100 ppm
  control against carmine spider mite: 100%
Carmine spider mite; 600 ppm
  control against carmine spider mite: 100%

## Cc1ncnc(NCCc2ccc(Oc3ccc(C(F)(F)F)cn3)cc2)c1Br [Compound I-1762]
Cucumber downy mildew; 400 ppm
  protectant activity against cucumber downy mildew in vivo: 100%
Wheat powdery mildew; 400 ppm
  protectant activity against wheat powdery mildew in vivo: 100%
[1]; 5 ppm, death rate after 48 hrs
  control (test results against green peach aphid): 100%
[1]; [2]
  control (test results against green peach aphid): 100%
[1]; [3]
  control (test results against green peach aphid): 100%
[1]; [4]
  control (test results against green peach aphid): 100%
Corn rust; 400 ppm
  protectant activity against corn rust in vivo: 100%
Carmine spider mite; 100 ppm
  control against carmine spider mite: 100%
Carmine spider mite; 600 ppm
  control against carmine spider mite: 100%

## FC(F)(F)c1ccc(Oc2ccc(CCNc3ncnc(C(F)(F)F)c3Cl)cc2)nc1 [Compound I-2748]
Cucumber downy mildew; Cucumis sativus, 168 h, read-out: protectant activity against cucumber downy mildew in vivo, 50 ppm
  pest or weed control at 50 ppm: 100%
Cucumber downy mildew; Cucumis sativus, 168 h
  pest or weed control at 100 ppm: 100%
Cucumber downy mildew; Cucumis sativus, 168 h, read-out: protectant activity against cucumber downy mildew in vivo, 400 ppm
  pest or weed control at 400 ppm: 100%
Wheat powdery mildew; Triticum aestivum, 168 h, read-out: protectant activity against wheat powdery mildew in vivo, 400 ppm
  pest or weed control at 400 ppm: 80 to 99%
[1]; Myzus persicae, foliar, 48 h, 600 ppm, death rate after 48 hrs
  pest or weed control at 600 ppm: 100%
Corn rust; Zea mays, 168 h, read-out: protectant activity against corn rust in vivo, 400 ppm
  pest or weed control at 400 ppm: 80 to 99%
armyworm; 72 h, 600 ppm, mortality after 72 h
  pest or weed control at 600 ppm: 80 to 99%

## CC(F)c1ncnc(NCCc2ccc(Oc3ncc(C(F)(F)F)cc3Cl)cc2)c1Cl (stereo not shown) [CK2, reference compound]
Wheat powdery mildew; 6.25 mg/L
  control effect against wheat powdery mildew (%): 0%
Wheat powdery mildew; 25 mg/L
  control effect against wheat powdery mildew (%): 80%
Wheat powdery mildew; 100 mg/L
  control effect against wheat powdery mildew (%): 100%
Wheat powdery mildew; 400 mg/L
  control effect against wheat powdery mildew (%): 100%
[1]; 1.25 mg/L
  Insecticidal activity against peach aphid (%): 0%
[1]; 2.5 mg/L
  Insecticidal activity against peach aphid (%): 23%
[1]; 5 mg/L
  Insecticidal activity against peach aphid (%): 37%
[1]; 10 mg/L
  Insecticidal activity against peach aphid (%): 95%
[1]; 100 mg/L
  Insecticidal activity against peach aphid (%): 100%
[1]; 600 mg/L
  Insecticidal activity against peach aphid (%): 100%
Corn rust; 6.25 mg/L
  control effect against corn rust (%): 85%
Corn rust; 25 mg/L
  control effect against corn rust (%): 100%
Corn rust; 100 mg/L
  control effect against corn rust (%): 100%
Corn rust; 400 mg/L
  control effect against corn rust (%): 100%
Carmine spider mite; 10 mg/L, contrastive test
  Insecticidal activity against carmine spider mite (% ): 32%
Carmine spider mite; 100 mg/L, contrastive test
  Insecticidal activity against carmine spider mite (% ): 100%
Carmine spider mite; 600 mg/L, contrastive test
  Insecticidal activity against carmine spider mite (% ): 100%

## Cc1ncnc(NCCc2ccc(Oc3cccc(F)c3)c(Cl)c2)c1Cl [II-559]
armyworm; 600 ppm, mortality after 72 h
  control (test results against armyworm): 100%

## CCOC(=O)c1ccc(Oc2ccc(CCNc3ncnc(CC)c3Cl)cc2)nc1 [Compound I-267]
Wheat powdery mildew; 100 ppm
  protectant activity against wheat powdery mildew in vivo: 100%
Wheat powdery mildew; 400 ppm
  protectant activity against wheat powdery mildew in vivo: 100%
[1]; [2]
  control (test results against green peach aphid): 100%
[1]; [3]
  control (test results against green peach aphid): 100%
[1]; [4]
  control (test results against green peach aphid): 100%
Corn rust; 400 ppm
  protectant activity against corn rust in vivo: 100%
Carmine spider mite; 600 ppm
  control against carmine spider mite: 100%

## CCc1ncnc(NCCc2ccc(Oc3ccc(C(F)(F)F)cn3)cc2)c1Cl [Compound I-6741]
Wheat powdery mildew; 100 ppm
  protectant activity against wheat powdery mildew in vivo: 100%
Wheat powdery mildew; 400 ppm
  protectant activity against wheat powdery mildew in vivo: 100%
[1]; 5 ppm, death rate after 48 hrs
  control (test results against green peach aphid): 100%
[1]; [2]
  control (test results against green peach aphid): 100%
[1]; [3]
  control (test results against green peach aphid): 100%
[1]; [4]
  control (test results against green peach aphid): 100%
Corn rust; 100 ppm
  protectant activity against corn rust in vivo: 100%
Corn rust; 400 ppm
  protectant activity against corn rust in vivo: 100%
armyworm; 100 ppm, mortality after 72 h
  control (test results against armyworm): 100%
armyworm; 600 ppm, mortality after 72 h
  control (test results against armyworm): 100%
Carmine spider mite; 10 mg/L, contrastive test
  Insecticidal activity against carmine spider mite (% ): 85%
Carmine spider mite; 100 mg/L, contrastive test
  Insecticidal activity against carmine spider mite (% ): 100%
Carmine spider mite; 600 mg/L, contrastive test
  Insecticidal activity against carmine spider mite (% ): 100%
Carmine spider mite; 100 ppm
  control against carmine spider mite: 100%
Carmine spider mite; 600 ppm
  control against carmine spider mite: 100%

## CCc1ncnc(NCCc2ccc(Oc3ncc(C(F)(F)F)cc3Cl)c(Cl)c2)c1Cl [Compound I-1472]
Wheat powdery mildew; 100 ppm
  protectant activity against wheat powdery mildew in vivo: 100%
Wheat powdery mildew; 400 ppm
  protectant activity against wheat powdery mildew in vivo: 100%
[1]; [2]
  control (test results against green peach aphid): 100%
[1]; [3]
  control (test results against green peach aphid): 100%
[1]; [4]
  control (test results against green peach aphid): 100%
Corn rust; 400 ppm
  protectant activity against corn rust in vivo: 100%
armyworm; 600 ppm, mortality after 72 h
  control (test results against armyworm): 100%
Carmine spider mite; 600 ppm
  control against carmine spider mite: 100%

## CCc1ncnc(NCc2ccc(Oc3ncc(Cl)cc3Cl)cc2)c1Cl [CK64, reference compound]
armyworm; 72 h, 600 mg/L, read-out: Insecticidal activity against armyworm (%)
  pest or weed control at 600 µg/mL: 0%
Carmine spider mite; Tetranychus cinnabarinus, 72 h, 600 mg/L, contrastive test, read-out: Insecticidal activity against carmine spider mite (% )
  pest or weed control at 600 µg/mL: 56%

## Cc1ncnc(NCCc2ccc(Oc3ncccc3C(F)(F)F)cc2)c1Cl [Compound I-929]
Wheat powdery mildew; 400 ppm
  protectant activity against wheat powdery mildew in vivo: 100%
[1]; [4]
  control (test results against green peach aphid): 100%
Corn rust; 400 ppm
  protectant activity against corn rust in vivo: 100%
Carmine spider mite; 600 ppm
  control against carmine spider mite: 100%
